Data published in US10494341B2, “Compound containing indoleacetic acid core structure and use thereof” (Beijing An Jian Xi Bio-Medical Technology Co., Ltd., priority 2015, dated 2019).

Columns and labels:
SW480 cells = assay: Degradation of the compound in cells (HPLC); assay type: in vitro ADME; details: 10 μM
Procedure: Determination of the stability of the compound: (1) degradation of the compound in plasma: Compound a (10 μM) dissolved in DMSO was cultured with 10% bovine serum medium (5 mL) at 37° C. 200 μL of medium was collected at the time points of 1, 3, 6, 12 and 24 hours, respectively, added with equal volume of acetonitrile for reaction, and subjected to high speed centrifugation (13,000 rpm) for 5 minutes. The level of degradation of the compound was determined by HPLC. (2) Degradation of the compound in cells: the compound a dissolved in DMSO was added at a final concentration of 10 μM to a 6-well culture dish containing SW480 cells and incubated in carbon dioxide incubator. The cells were collected at the time points of 1, 3, 6, 12, and 24 hours, respectively, washed fully, then extracted with 0.5 mL of acetonitrile, and centrifuged at high speed (12,000 rpm) for 5 minutes. The level of degradation of the compound in the organic phase was determined by HPLC.

[1] = test system: colon cancer cells (SW480); details: SW480 tumors in nude mice
Procedure: The experiment was carried out using compound a in this example. Under sterile conditions, a suspension of colon cancer cells (SW480) in logarithmic growth phase (cell concentration was adjusted to 1×10^7/mL with physiological saline) was inoculated subcutaneously to 5 to 6 weeks old balb/c female nude mice on the right rear back, and each nude mice was inoculated at an amount of 0.3 ml, i.e. the number of cells contained was 3×10^6 per each mouse. 10 days later, subcutaneous transplanted tumor of 100-250 mm^3 appeared. The nude mice with tumor were randomly divided into several groups, each containing 6 mice: (1) control group; (2) doxorubicin group; (3) doxorubicin+amifostine; (4) doxorubicin+Celecoxib+intermediate II; (5) doxorubicin+intermediate I+intermediate II; (6) doxorubicin+low-dose compound a (6 mg/kg/day); (7) doxorubicin+high-dose compound a (15 mg/kg/day). Firstly, the following compounds were administered to each group of nude mice with tumor according to the following doses: intermediate I and intermediate II (3 mg/kg/day respectively), amifostine (400 mg/kg/day), Celecoxib (6 mg/kg/day). Except that amifostine was subcutaneously injected (30 minutes before irradiation), the other protective agents were administered by gavage. The above drugs were administered every day for 5 weeks continuously. 12 hours after the administration, doxorubicin (2.5 mg/kg) was injected intraperitoneally, and it was administered once every 2 days for 5 weeks. During the dosing period, the body weight of the nude mice was measured every two days with a precision electronic balance. The growth of the tumor and whether or not red and swelling and rupture occur were observed every day after inoculation. After tumor formation, the surface morphology and activity of the transplanted tumor were examined, and the longest diameter (a) and the shortest diameter (b) of the tumor nodules were measured every 3 days with a vernier caliper. […] 21 days after administration of doxorubicin, the tail vein blood of mice was collected to perform leukocyte count and blood biochemical index analysis. The tumor tissue and normal peripheral tissues were taken on the last day of treatment, and the content of the intermediate I therein was measured by HPLC (FIG. 9a). At the same time, paraffin sections were made, the occurrence of apoptosis was detected by terminal labeling (FIG. 9b), and the relative survival percentages of normal tissue and tumor tissue were calculated (the results are summarized in FIG. 9b).

HT-29 cells = assay: HT-29 transplanted tumors in nude mice, compound a in combination with doxorubicin; assay type: in vivo; details: Doxorubicin 2 mg/kg/week i.p. or compound a 3 mg/kg/day gavage, 4 weeks
Procedure: Compound a was administered by gavage once a day for 4 weeks continuously; Doxorubicin was injected intraperitoneally once a week for 4 weeks. Body weight and tumor volume of animals were measured and calculated according to Example 9.

[2] = test system: normal mouse intestinal mucosa cells; assay: Cisplatin damage of normal cells with compound (LDH); assay type: cell-based; details: all tested concentrations except the high concentration, 24 hours
Procedure: (§1) The mechanism of compounds enhancing killing effect of chemotherapeutic agents on tumor cells while protecting normal cells: mouse colon cancer cells (MCA-38) and primarily-cultured normal mouse intestinal mucosa cells were cultured in a 96-well plate, respectively. 24 hours later, various concentrations (10, 30 and 90 μM) of compound b was respectively added to the cell culture medium, and incubated for 24 hours. LDH was used to detect the damage of the cells, and the cells were collected and extracted for protein. The expression levels of adenosine triphosphate-binding transporter (ABCG2) and the cell cycle-dependent protein […] (p21) were detected by immunoblotting (performed according to the instructions provided by the manufacturer). […] ABCG2 is a transporter, and can pump anticancer drugs out of the cells. […] The high expression of p21 allows the cells to be in non-dividing quiescent phase, so that cells are not sensitive to chemotherapeutic drugs or injury in other forms. The compounds of the present invention make these proteins expressed differentially in normal tissues and tumor tissues, which is one of the reasons for selectively protecting normal tissues and enhancing the sensitivity of tumors to treatment.

[3] = test system: adenosine triphosphate-binding transporter (ABCG2); assay: Expression of ABCG2 by immunoblotting; assay type: cell-based, mouse
Procedure: as §1

[4] = test system: cell cycle-dependent protein kinase (p21); assay: Expression of p21 by immunoblotting; assay type: cell-based, mouse
Procedure: as §1

[5] = normal mouse intestinal mucosa cells

SMILES	compound hydrolyzed in cells (SW480 cells; within 3 hours) [%]	compound hydrolyzed in cells (SW480 cells; within 24 hours)	effect on tumor / on sensitivity of tumor to doxorubicin ([1]; doxorubicin 2.5 mg/kg i.p. every 2 days for 5 weeks, agents daily)	death of animals during treatment ([1]; doxorubicin 2.5 mg/kg i.p., 6 mice per group)	protection of normal tissue and cells from doxorubicin ([1]; with doxorubicin)	inhibition of the tumor, administered alone (HT-29 cells)	cisplatin damage of normal intestinal mucosa cells [2]	expression of ABCG2 in tumor cells ([3]; MCA-38 cells)	expression of ABCG2 in normal cells [3, 5]	expression of p21 in tumor cells ([4]; MCA-38 cells)	expression of p21 in normal intestinal mucosa cells [4, 5]
COC1=C(OC)C(=O)C(CCCCCCCCCCOC(=O)Cc2c(C)n(C(=O)c3ccc(Cl)cc3)c3cc(OC)ccc23)=C(C)C1=O [compound a]	~80	completely hydrolyzed	significantly enhance the sensitivity of tumor cells to chemotherapy	No death occurs	effective in inhibiting the killing effect of Doxorubicin on normal leukocytes, cardiomyocytes and peripheral normal tissues around the tumor	only slightly inhibited	–	–	–	–	–
COc1ccc2c(CC(=O)OCCCCCCCCCCc3c(C)c(O)c(OC)c(OC)c3O)c(C)n(C(=O)c3ccc(Cl)cc3)c2c1 [compound b]	–	–	–	–	–	–	significantly inhibit cisplatin from damaging normal intestinal mucosa cells	significantly inhibit expression	no influence	no influence	significantly enhance the expression of p21
